# Measured values reported in publication PMC12591484 (PLOS One, 2025).
# Columns and labels:
# [1] = system: α1β3γ2L GABAA receptors, bulky mutation at β3M227; set-up: key: +: Mutant-function studies are deemed positive when bulky mutations (mostly tryptophans) at the site significantly reduce positive modulation by anesthetics; -: Negative results are indicated by “–“ symbols; conditions: cited from earlier work
# [2] = system: α1β3γ2L GABAA receptors, bulky mutation at γ2I242; set-up: key to Mutant-function result, γ2– (M1) I242: +: Mutant-function studies are deemed positive when bulky mutations (mostly tryptophans) at the site significantly reduce positive modulation by anesthetics; -: Negative results are indicated by “–“ symbols; conditions: cited from earlier work
# [3] = system: α1β3γ2L GABAA receptors, bulky mutation at β3N265; set-up: method as in PMID 30696720, PMID 32247113; key: +: Mutant-function studies are deemed positive when bulky mutations (mostly tryptophans) at the site significantly reduce positive modulation by anesthetics; -: Negative results are indicated by “–“ symbols; conditions: cited from earlier work
# [4] = system: α1β3γ2L GABAA receptors, bulky mutation at α1S270; set-up: key to Mutant-function result, α1+ (M2, M3) S270: +: Mutant-function studies are deemed positive when bulky mutations (mostly tryptophans) at the site significantly reduce positive modulation by anesthetics; -: Negative results are indicated by “–“ symbols; conditions: cited from earlier work
# [5] = system: α1β3γ2L GABAA receptors, bulky mutation at α1A291; set-up: method as in PMID 30696720; key: +: Mutant-function studies are deemed positive when bulky mutations (mostly tryptophans) at the site significantly reduce positive modulation by anesthetics; -: Negative results are indicated by “–“ symbols; conditions: cited from earlier work
# [6] = system: α1β3γ2L GABAA receptors, bulky mutation at γ2S301; set-up: method as in PMID 30696720; key: +: Mutant-function studies are deemed positive when bulky mutations (mostly tryptophans) at the site significantly reduce positive modulation by anesthetics; -: Negative results are indicated by “–“ symbols; conditions: cited from earlier work
# [7] = system: α1β3γ2L GABAA receptors, bulky mutation at α1M236; set-up: key: +: Mutant-function studies are deemed positive when bulky mutations (mostly tryptophans) at the site significantly reduce positive modulation by anesthetics; -: Negative results are indicated by “–“ symbols; conditions: cited from earlier work
# [8] = system: α1β3γ2L GABAA receptors, bulky mutation at α1L232; set-up: key: +: Mutant-function studies are deemed positive when bulky mutations (mostly tryptophans) at the site significantly reduce positive modulation by anesthetics; -: Negative results are indicated by “–“ symbols; conditions: cited from earlier work
# [9] = system: α1β3γ2L GABAA receptors, bulky mutation at γ2S280; set-up: method as in PMID 30696720, PMID 32247113; key: +: Mutant-function studies are deemed positive when bulky mutations (mostly tryptophans) at the site significantly reduce positive modulation by anesthetics; -: Negative results are indicated by “–“ symbols; conditions: cited from earlier work
# [10] = target: T1, α1β3L231Cγ2L GABAA receptors (Homo sapiens, UniProt P14867+P18507+P28472, L256C); assay: Drug protection from pCMBS modification (SCAMP); assay type: cell-based; set-up: key: +: SCAMP is Substituted Cysteine Modification and Protection and is positive when adding anesthetic to cysteine modifier significantly reduces persistent post-exposure effects due to covalent modification; -: Negative results are indicated by “–“ symbols; conditions: results of this study (*); some cells also cite [9]
# T1 construct: expressed in transfected cells; host or cells: Xenopus oocytes injected with capped mRNA, 1α:1β:5γ
# T1 sequence (P14867 28-456): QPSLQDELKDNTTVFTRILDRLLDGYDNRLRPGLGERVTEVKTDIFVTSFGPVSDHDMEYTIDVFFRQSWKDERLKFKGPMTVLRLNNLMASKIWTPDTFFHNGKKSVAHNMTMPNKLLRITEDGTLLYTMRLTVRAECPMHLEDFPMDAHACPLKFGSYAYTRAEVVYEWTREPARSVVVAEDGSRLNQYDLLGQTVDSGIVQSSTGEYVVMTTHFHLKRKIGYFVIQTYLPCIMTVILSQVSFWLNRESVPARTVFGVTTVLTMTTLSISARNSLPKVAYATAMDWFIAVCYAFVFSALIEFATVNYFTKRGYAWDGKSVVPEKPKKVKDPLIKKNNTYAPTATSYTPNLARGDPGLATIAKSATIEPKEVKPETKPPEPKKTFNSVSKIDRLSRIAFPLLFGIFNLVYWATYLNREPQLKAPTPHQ
# T1 sequence (P28472 26-473 L256C): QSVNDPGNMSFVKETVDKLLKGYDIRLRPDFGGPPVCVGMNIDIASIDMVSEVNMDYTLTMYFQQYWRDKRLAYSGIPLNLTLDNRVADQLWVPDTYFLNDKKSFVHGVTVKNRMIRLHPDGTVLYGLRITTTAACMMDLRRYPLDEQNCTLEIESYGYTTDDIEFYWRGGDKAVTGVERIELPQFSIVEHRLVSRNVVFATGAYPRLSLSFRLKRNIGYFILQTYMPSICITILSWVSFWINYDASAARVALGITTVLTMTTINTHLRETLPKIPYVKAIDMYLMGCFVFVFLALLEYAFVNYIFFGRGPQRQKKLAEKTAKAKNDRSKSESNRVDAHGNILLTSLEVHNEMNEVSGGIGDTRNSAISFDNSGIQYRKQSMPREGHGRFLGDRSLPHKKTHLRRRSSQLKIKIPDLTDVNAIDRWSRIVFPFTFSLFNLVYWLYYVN
# T1 sequence (P18507 40-475): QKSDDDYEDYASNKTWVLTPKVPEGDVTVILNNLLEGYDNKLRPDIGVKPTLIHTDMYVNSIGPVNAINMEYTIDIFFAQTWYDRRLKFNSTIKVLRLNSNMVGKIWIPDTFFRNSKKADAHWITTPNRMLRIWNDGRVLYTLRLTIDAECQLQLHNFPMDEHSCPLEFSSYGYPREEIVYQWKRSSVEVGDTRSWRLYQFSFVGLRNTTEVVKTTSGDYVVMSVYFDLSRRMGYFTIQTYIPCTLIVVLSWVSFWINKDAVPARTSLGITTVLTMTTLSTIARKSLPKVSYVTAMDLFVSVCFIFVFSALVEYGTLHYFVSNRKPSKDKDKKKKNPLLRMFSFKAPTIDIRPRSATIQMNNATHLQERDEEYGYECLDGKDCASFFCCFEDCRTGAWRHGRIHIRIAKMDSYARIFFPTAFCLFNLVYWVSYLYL
# Description: (§1) Experiments were performed in ND-96 buffer at room temperature (20–22°C). Oocytes were placed in a low-volume (30µl) flow chamber and impaled with borosilicate microelectrodes filled with 3M KCl (resistance 0.5–3 MΩ) and voltage-clamped at −50 mV (model OC-725C; Warner Instruments, Hamden, CT, USA). Superfusate solutions in ND-96 were delivered at 2 ml/min from glass syringe reservoirs via computer-controlled valves (VC-8; Warner Instruments), a micro-manifold (ALA-VM8; ALA Scientific Instruments, Farmingdale, NY, USA), and PTFE tubing. Currents were digitized at 200 Hz on a computer running ClampEx v8.0 software (Molecular Devices, San Jose, CA, USA). Digitized traces were filtered with a 10-Hz low-pass Bessel function, leak corrected and analyzed for peak amplitude off-line using Clampfit v8 software (Molecular Devices).
# (§2) Drug protection from pCMBS modification was assessed under pCMBS exposure conditions that produced approximately half of the maximal modification ratio for each mutant receptor, and a least a value of 3. This approach balanced the magnitude of functional modification signals (smaller with less pCMBS exposure) against the challenge of using a reversibly bound ligand to competitively block an irreversible covalent cysteine-modifying reaction. […] Each oocyte was used in a single SCAMP experiment. […] Etomidate was used as a positive control for anesthetic protection in α1M236C and β3M286C mutants and as a negative control in α1S270C, α1A291C, β3L231C, γ2S301C, γ2I242C, and γ2L246C mutants. R-mTFD-MPAB was used as a positive control in α1S270C, α1A291C, β3L231C, and γ2LS301C mutants and as a negative control in α1M236C and β3M286C mutants. For each cysteine mutant and protective drug combination, five oocytes were studied.
# (§3) Non-linear least squares fits and statistical analyses were performed in Prism 10.4.0. (GraphPad Software, San Diego, CA, USA). […] Protection (steric inhibition of pCMBS modification) was inferred when anesthetics produced significant reductions in modification ratios relative to control (no anesthetic) values. The statistical significance threshold was p < 0.05.
# [11] = system: α1β3γ2L GABAA receptors, bulky mutation at β3L231; set-up: key: +: Mutant-function studies are deemed positive when bulky mutations (mostly tryptophans) at the site significantly reduce positive modulation by anesthetics; -: Negative results are indicated by “–“ symbols; conditions: cited from earlier work
# [12] = target: T2, α1A291Cβ3γ2L GABAA receptors (Homo sapiens, UniProt P14867+P18507+P28472, A318C); assay: Drug protection from pCMBS modification (SCAMP); assay type: cell-based; conditions: for modification ratio with anesthetic present, single oocyte example (Fig 2): 3 mM GABA + 10 µM pCMBS for 90 s plus […] etomidate
# T2 construct: expressed in transfected cells; host or cells: Xenopus oocytes injected with capped mRNA, 1α:1β:5γ
# T2 sequence (P14867 28-456 A318C): as the sequence (P14867 28-456) above, with A291C counted along it
# T2 sequence (P28472 26-473): as the sequence (P28472 26-473 L256C) above, with C231L counted along it
# T2 sequence (P18507 40-475): as the sequence (P18507 40-475) above
# Description: as §1, §2, §3
# [13] = α1A291Cβ3γ2L, 8 µM R-mTFD-MPAB or 10 µM pTFD-di-iPr-BnOH
Structure (SMILES),"Mutant-function result, β3– (M1) M227 [1]","Mutant-function result, γ2– (M1) I242 [2]","Mutant-function result, β3+ (M2, M3) N265 [3]","Mutant-function result, α1+ (M2, M3) S270 [4]","Mutant-function result, α1+ (M2, M3) A291 [5]","Mutant-function result, γ2+ (M2, M3) S301 [6]","Mutant-function result, α1– (M1) M236 [7]","Mutant-function result, α1– (M1) L232 [8]","Mutant-function result, γ2+ (M2, M3) S280 [9]","SCAMP result, β3– (M1) L231 [10]","Mutant-function result, β3– (M1) L231 [11]","protection from pCMBS modification (significant reduction of modification ratio vs control, p < 0.05) ([12]; α1A291C (α+), pCMBS 10 µM x 90 s, […] etomidate, 8 µM R-mTFD-MPAB or 10 µM pTFD-di-iPr-BnOH, n = 5)","modification ratio with anesthetic present, single oocyte example (Fig 2) [12, 13]","modification ratio lower than control ([12]; α1A291Cβ3γ2L, single oocyte examples of Fig 2, control modification ratio 4.0)",effect of mutation on receptor modulation by the anesthetic ([2]; γ2I242W mutation),effect of mutation on receptor modulation by the anesthetic ([4]; α1S270I mutation)
"C=CCC1(c2cccc(C3(C(F)(F)F)N=N3)c2)C(=O)NC(=O)N(C)C1=O (stereo not drawn) [R-mTFD-MPAB, R-5-allyl-1-methyl-5-(m-trifluoromethyl-diazirynylphenyl) barbituric acid]","+^[9, 15],","-^[9, 15]","-^[13, 15]","+^[13, 15]",+^[13],+^[13],-^[9],-^[9],"+^[13, 15]","+^[9], *",-^[9],protection was inferred,2.1,47%,–,–
"CCOC(=O)c1cncn1[C@H](C)c1ccccc1 [etomidate, R-etomidate]","-^[9, 15]","-^[9, 15]","+^[13, 15]","-^[13, 15]",-^[13],-^[13],"+^[9], [12]","+^[9, 12]","-^[13, 15]",–,+^[9],–,3.8,–,–,–
CC(C)c1cc(C2(C(F)(F)F)N=N2)cc(C(C)C)c1CO [pTFD-di-iPr-BnOH],+^[15],+^[15],-^[15],+^[15],–,–,–,–,-^[15],+*,–,–,–,–,significantly reduced,significantly reduced
